Assay results as given in patent US9353082B2, “Pharmaceutical compounds” (BIAL—PORTELA & CA, S.A., priority 2008, dated 2016).

Columns and labels:
[1] = target: T1, FAAH (Mus musculus, UniProt O08914); assay: In vivo FAAH inhibition after oral dosing, remaining activity in liver homogenate (LVh, peripheral tissue); design: species or system NMRI mice; conditions: liver homogenate, 3 mg/kg, 8 h after dosing; low value = strong inhibitor
T1 construct: A fragment of liver, left lung lobe and brain without cerebellum were removed; from tissue; host or cells: male NMRI mice; brain (without cerebellum) and liver homogenates
T1 sequence (O08914 1-579): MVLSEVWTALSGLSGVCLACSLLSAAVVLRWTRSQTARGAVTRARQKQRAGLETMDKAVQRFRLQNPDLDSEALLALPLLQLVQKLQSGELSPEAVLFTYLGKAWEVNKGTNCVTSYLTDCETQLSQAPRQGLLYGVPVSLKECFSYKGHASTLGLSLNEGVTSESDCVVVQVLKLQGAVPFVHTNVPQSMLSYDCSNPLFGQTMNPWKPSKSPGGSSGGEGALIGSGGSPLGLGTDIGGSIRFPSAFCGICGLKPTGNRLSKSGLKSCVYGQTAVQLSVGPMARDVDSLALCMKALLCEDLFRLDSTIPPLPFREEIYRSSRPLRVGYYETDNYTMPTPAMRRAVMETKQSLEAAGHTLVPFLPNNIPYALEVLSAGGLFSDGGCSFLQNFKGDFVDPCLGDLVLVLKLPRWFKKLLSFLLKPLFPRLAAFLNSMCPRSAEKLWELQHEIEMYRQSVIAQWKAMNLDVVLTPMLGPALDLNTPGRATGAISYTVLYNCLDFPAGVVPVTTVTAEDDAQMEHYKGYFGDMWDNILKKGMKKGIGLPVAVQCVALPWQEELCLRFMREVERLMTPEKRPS
Outline: (§1)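 Male NMRI mice, fasted overnight, got 30 or 3 mg/kg compound orally (0.5% CMC suspension or water) and were compared with vehicle controls. Brain (no cerebellum) and liver homogenates were incubated with 2 μM AEA plus 5 nM 3H-AEA at 37 °C, 10 min for brain and 7 min for liver. Remaining FAAH activity is % of vehicle after blank subtraction.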

[2] = target: T2, FAAH (Rattus norvegicus, UniProt P97612); assay: In vitro FAAH activity in rat brain membranes, 3H-AEA substrate, % of control; type: biochemical, Wistar rats; conditions: rat brain membranes, compound at 100 nM, low value = strong inhibitor
T2 construct: Frozen brains (without cerebellum) from Wistar rats were used; from tissue; host or cells: Wistar rat brain (without cerebellum), washed membrane pellets
T2 sequence (P97612 1-579): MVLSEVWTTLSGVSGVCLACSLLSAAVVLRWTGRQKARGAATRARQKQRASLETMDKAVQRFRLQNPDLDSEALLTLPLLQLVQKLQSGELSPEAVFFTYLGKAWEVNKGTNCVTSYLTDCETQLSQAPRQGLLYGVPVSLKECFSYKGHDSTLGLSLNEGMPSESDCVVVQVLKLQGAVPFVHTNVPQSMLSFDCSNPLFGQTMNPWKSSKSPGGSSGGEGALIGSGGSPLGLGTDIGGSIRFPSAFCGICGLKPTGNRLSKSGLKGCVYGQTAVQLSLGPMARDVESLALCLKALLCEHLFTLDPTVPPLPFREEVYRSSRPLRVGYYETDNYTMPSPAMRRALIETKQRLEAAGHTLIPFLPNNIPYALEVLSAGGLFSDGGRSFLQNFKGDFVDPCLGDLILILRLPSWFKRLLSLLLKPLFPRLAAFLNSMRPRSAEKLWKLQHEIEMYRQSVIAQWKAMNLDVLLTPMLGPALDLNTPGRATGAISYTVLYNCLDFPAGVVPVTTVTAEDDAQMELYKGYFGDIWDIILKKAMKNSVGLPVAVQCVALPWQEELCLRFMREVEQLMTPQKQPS
Outline: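 Wistar rat brain membranes (5 μg protein) preincubated 15 min at 37 °C with compound at 10 μM or 0.1 μM (0.1% DMSO), then 2 μM AEA including 3H-AEA with 0.1% BSA, Tris pH 7.6, 10 min. 3H-ethanolamine counted after charcoal stop; % of no-compound control after blank subtraction.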

[3] = target: T1, FAAH; assay: In vivo FAAH inhibition after oral dosing, remaining activity in brain homogenate (BRh, central nervous tissue); design: species or system NMRI mice; conditions: brain homogenate, 3 mg/kg, 8 h after dosing; low value = strong inhibitor
Outline: as §1

Row | Structure (SMILES) | In Vivo LVh 3 mg·kg 8 h (remaining FAAH activity, % of control) [1] | In Vitro 100 nM (FAAH activity, % of control) [2] | In Vivo BRh 3 mg·kg 8 h (remaining FAAH activity, % of control) [3]
1 | CN(C(=O)n1cnc(-c2cccc(-c3cccc(C(N)=O)c3)c2)c1)C12CC3CC(CC(C3)C1)C2 [Compound 287, 4-(3′-carbamoylbiphenyl-3-yl)-N-methyl-N-tricyclo[3.3.1.13,7]dec-1-yl-1H-imidazole-1-carboxamide-propan-2-ol (1:1)] | 85.7 % of control | 127.3 % of control | 105.8 % of control
2 | CN(C(=O)n1cnc(-c2cccnc2)c1)C12CC3CC(CC(C3)C1)C2 [Compound 289, N-methyl-4-pyridin-3-yl-N-tricyclo[3.3.1.13,7]dec-1-yl-1H-imidazole-1-carboxamide] | 96.1 % of control | 109.8 % of control | 113.2 % of control
3 | CC1(C)COCN1C(=O)n1cnc(-c2ccccc2)c1Cl [Compound 295, (5-chloro-4-phenyl-1H-imidazol-1-yl)(4,4-dimethyloxazolidin-3-yl)methanone] | 32.4 % of control | 99.2 % of control | 77.9 % of control
4 | CN(C(=O)n1cnc(-c2cccc(O)c2)c1)C1CCCCC1 [Compound 307, N-cyclohexyl-4-(3-hydroxyphenyl)-N-methyl-1H-imidazole-1-carboxamide] | 10.1 % of control | 56.2 % of control | 137.6 % of control
5 | COc1ccc(-c2cn(C(=O)N(C)C3CCCCC3)cn2)cc1F [Compound 314, N-cyclohexyl-4-(3-fluoro-4-methoxyphenyl)-N-methyl-1H-imidazole-1-carboxamide] | 48 % of control | 84.3 % of control | 84.3 % of control
6 | COc1cc(-c2cn(C(=O)N(C)C3CCCCC3)cn2)ccc1F [Compound 319, N-cyclohexyl-4-(4-fluoro-3-methoxyphenyl)-N-methyl-1H-imidazole-1-carboxamide] | 2 % of control | 19.2 % of control | 5.9 % of control
7 | COc1cccc(-c2cn(C(=O)N3COCC3(C)C)cn2)c1 [Compound 329, (4,4-dimethyloxazolidin-3-yl)(4-(3-methoxyphenyl)-1H-imidazol-1-yl)methanone] | 18.5 % of control | 99.5 % of control | 83.3 % of control
8 | CN(C(=O)n1cnc(-c2ccc(O)c(F)c2)c1)C1CCCCC1 [Compound 330, N-cyclohexyl-4-(3-fluoro-4-hydroxyphenyl)-N-methyl-1H-imidazole-1-carboxamide] | 11.1 % of control | 29.7 % of control | 22.8 % of control
9 | CN(C(=O)n1cnc(-c2ccc(O)c(F)c2)c1)C1CCCC1 [Compound 331, N-cyclopentyl-4-(3-fluoro-4-hydroxyphenyl)-N-methyl-1H-imidazole-1-carboxamide] | 4.9 % of control | 3.6 % of control | 4 % of control
10 | CC1(C)COCN1C(=O)n1cnc(-c2ccc(O)c(F)c2)c1 [Compound 332, (4,4-dimethyloxazolidin-3-yl)(4-(3-fluoro-4-hydroxyphenyl)-1H-imidazol-1-yl)methanone] | 19.5 % of control | 88.5 % of control | 60 % of control
11 | CC1(C)COCN1C(=O)n1cnc(-c2ccc(F)c(O)c2)c1 [Compound 333, (4,4-dimethyloxazolidin-3-yl)(4-(4-fluoro-3-hydroxyphenyl)-1H-imidazol-1-yl)methanone] | 81.5 % of control | 81.9 % of control | 119 % of control
12 | CN(C(=O)n1cnc(-c2cc3ccccc3o2)c1)C1CCCCC1 [Compound 334, 4-(benzofuran-2-yl)-N-cyclohexyl-N-methyl-1H-imidazole-1-carboxamide] | 5.1 % of control | 58.2 % of control | 9.9 % of control
13 | CN(C(=O)n1cnc(-c2cccnc2)c1)C1CCCCC1 [Compound 335, N-cyclohexyl-N-methyl-4-(pyridin-3-yl)-1H-imidazole-1-carboxamide] | 1 % of control | 75.4 % of control | 3.1 % of control
14 | CN(C(=O)n1cnc(-c2ccc(F)c(O)c2)c1)C1CCCCC1 [Compound 343, N-cyclohexyl-4-(4-fluoro-3-hydroxyphenyl)-N-methyl-1H-imidazole-1-carboxamide] | 19.7 % of control | 44.7 % of control | 95.5 % of control
15 | CN(C(=O)n1cnc(-c2ccc(F)c(O)c2)c1)C1CCCC1 [Compound 344, N-cyclopentyl-4-(4-fluoro-3-hydroxyphenyl)-N-methyl-1H-imidazole-1-carboxamide] | 2.1 % of control | 1.7 % of control | 121.1 % of control
16 | CC1(C)COCN1C(=O)n1cnc(-c2cccc(O)c2)c1 [Compound 347, (4,4-dimethyloxazolidin-3-yl)(4-(3-hydroxyphenyl)-1H-imidazol-1-yl)methanone] | 24.5 % of control | 109.6 % of control | 76.6 % of control
17 | COc1cc(-c2cn(C(=O)N3COCC3(C)C)cn2)ccc1F [Compound 351, (4,4-dimethyloxazolidin-3-yl)(4-(4-fluoro-3-methoxyphenyl)-1H-imidazol-1-yl)methanone] | 11.7 % of control | 95.6 % of control | 7.1 % of control
18 | CN(C(=O)n1cnc(-c2ccc(O)c(N)c2)c1)C1CCCCC1.Cl [Compound no. 357, 4-(3-amino-4-hydroxyphenyl)-N-cyclohexyl-N-methyl-1H-imidazole-1-carboxamide hydrochloride] | 10.4 % of control | 93.9 % of control | 111.9 % of control
19 | CC1(C)COCN1C(=O)n1nnc2cc(Cl)ccc21 [Compound no. 359, (5-chloro-1-benzo[d][1,2,3]triazol-1-yl)(4,4-dimethyloxazolidin-3-yl)methanone] | 1.7 % of control | 1.4 % of control | 2.5 % of control
